Ki data for 9 molecules are collected here from patent publication US11147812B2, “Tyrosine analogues derivatives as Rho-kinase inhibitors” (Chiesi Farmaceutici S.p.A., priority 2017, dated 2021).

Molecules are shown by their SMILES.

The Ki is the equilibrium dissociation constant of an inhibitor or competing ligand from its target. High values mean a looser hold on the target, low ones a stronger hold on the target.

For experiment [1], the target named is Rho kinase 1 (ROCK1) (Homo sapiens, UniProt Q13464). Description: In vitro Rho kinase inhibitory activity assay (ADP-Glo), ROCK1. Format: biochemical. Conditions: 10 μM ATP, 25° C., Ki by Cheng-Prusoff. As to the method:
(§1) The effectiveness of compounds of the present invention to inhibit Rho kinase activity can be determined in a 10 μl assay containing 40 mM Tris pH7.5, 20 mM MgCl2 0.1 mg/ml BSA, 50 μM DTT and 2.5 μM peptide substrate (Myelin Basic Protein) using an ADP-Glo kit (Promega). Compounds were dissolved in DMSO such that the final concentration of DMSO was 1% in the assay. All reactions/incubations are performed at 25° C. Compound (2 ul) and either Rho kinase 1 or 2 (4 μl) were mixed and incubated for 30 mins. Reactions were initiated by addition of ATP (4 μl) such that the final concentration of ATP in the assay was 10 μM. After a 1 hour incubation 10 μl of ADP-Glo Reagent was added and after a further 45 minute incubation 20 ul of Kinase Detection Buffer was added and the mixture incubated for a further 30 minutes. The luminescent signal was measured on a luminometer. […] Compounds were tested in dose-response format and the inhibition of kinase activity was calculated at each concentration of compound. To determine the IC50 (concentration of compound required to inhibit 50% of the enzyme activity) data were fit to a plot of % inhibition vs Log10 compound concentration using a sigmoidal fit with a variable slope and fixing the maximum to 100% and the minimum to 0%. To determine the Ki values the Cheng-Prusoff equation was utilized (Ki=IC50/(1+[S]/Km)

Experiment [2] concerns the target Rho kinase 2 (ROCK2) (Homo sapiens, UniProt O75116). Description: In vitro Rho kinase inhibitory activity assay (ADP-Glo), ROCK2. The class given is biochemical. Conditions: 10 μM ATP, 25° C., Ki by Cheng-Prusoff. As to the method: as §1
In general terms: ADP-Glo first removes unused ATP, then detects ADP through luciferase.

Sequence of Rho kinase 2 (ROCK2) (O75116 whole entry): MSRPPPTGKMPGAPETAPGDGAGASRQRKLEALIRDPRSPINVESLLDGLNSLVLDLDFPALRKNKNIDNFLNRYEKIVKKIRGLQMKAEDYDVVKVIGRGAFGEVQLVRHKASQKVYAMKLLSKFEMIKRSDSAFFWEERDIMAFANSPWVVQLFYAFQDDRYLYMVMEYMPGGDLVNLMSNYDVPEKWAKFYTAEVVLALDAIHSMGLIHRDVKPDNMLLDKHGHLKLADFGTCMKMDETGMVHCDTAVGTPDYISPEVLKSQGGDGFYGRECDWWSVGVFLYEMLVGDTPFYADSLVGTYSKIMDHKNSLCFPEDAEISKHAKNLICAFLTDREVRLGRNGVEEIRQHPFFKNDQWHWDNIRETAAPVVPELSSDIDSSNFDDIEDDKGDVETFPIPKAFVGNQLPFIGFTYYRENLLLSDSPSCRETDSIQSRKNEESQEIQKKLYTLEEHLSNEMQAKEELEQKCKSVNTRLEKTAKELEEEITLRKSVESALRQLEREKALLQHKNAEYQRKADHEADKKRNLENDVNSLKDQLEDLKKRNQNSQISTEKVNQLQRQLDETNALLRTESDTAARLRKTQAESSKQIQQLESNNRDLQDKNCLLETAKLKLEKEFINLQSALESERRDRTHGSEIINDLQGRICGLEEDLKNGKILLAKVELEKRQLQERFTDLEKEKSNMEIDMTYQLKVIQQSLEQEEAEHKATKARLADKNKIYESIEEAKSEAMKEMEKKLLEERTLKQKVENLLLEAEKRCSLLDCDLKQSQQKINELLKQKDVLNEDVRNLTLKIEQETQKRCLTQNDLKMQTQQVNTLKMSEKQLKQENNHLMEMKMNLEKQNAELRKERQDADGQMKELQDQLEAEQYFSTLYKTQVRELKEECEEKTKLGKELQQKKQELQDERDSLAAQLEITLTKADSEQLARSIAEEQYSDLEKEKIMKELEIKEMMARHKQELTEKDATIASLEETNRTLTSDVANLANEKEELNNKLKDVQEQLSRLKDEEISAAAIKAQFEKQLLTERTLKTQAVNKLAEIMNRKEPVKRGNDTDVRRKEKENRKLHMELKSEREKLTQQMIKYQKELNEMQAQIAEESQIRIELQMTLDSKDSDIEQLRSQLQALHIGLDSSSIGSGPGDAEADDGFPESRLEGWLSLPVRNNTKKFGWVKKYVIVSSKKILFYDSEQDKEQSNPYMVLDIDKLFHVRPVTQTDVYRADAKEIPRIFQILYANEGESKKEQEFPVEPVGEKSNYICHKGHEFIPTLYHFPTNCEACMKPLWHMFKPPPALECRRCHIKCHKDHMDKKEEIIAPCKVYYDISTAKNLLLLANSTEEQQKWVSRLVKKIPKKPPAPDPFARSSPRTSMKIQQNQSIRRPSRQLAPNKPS
Sequence of Rho kinase 1 (ROCK1) (Q13464 whole entry): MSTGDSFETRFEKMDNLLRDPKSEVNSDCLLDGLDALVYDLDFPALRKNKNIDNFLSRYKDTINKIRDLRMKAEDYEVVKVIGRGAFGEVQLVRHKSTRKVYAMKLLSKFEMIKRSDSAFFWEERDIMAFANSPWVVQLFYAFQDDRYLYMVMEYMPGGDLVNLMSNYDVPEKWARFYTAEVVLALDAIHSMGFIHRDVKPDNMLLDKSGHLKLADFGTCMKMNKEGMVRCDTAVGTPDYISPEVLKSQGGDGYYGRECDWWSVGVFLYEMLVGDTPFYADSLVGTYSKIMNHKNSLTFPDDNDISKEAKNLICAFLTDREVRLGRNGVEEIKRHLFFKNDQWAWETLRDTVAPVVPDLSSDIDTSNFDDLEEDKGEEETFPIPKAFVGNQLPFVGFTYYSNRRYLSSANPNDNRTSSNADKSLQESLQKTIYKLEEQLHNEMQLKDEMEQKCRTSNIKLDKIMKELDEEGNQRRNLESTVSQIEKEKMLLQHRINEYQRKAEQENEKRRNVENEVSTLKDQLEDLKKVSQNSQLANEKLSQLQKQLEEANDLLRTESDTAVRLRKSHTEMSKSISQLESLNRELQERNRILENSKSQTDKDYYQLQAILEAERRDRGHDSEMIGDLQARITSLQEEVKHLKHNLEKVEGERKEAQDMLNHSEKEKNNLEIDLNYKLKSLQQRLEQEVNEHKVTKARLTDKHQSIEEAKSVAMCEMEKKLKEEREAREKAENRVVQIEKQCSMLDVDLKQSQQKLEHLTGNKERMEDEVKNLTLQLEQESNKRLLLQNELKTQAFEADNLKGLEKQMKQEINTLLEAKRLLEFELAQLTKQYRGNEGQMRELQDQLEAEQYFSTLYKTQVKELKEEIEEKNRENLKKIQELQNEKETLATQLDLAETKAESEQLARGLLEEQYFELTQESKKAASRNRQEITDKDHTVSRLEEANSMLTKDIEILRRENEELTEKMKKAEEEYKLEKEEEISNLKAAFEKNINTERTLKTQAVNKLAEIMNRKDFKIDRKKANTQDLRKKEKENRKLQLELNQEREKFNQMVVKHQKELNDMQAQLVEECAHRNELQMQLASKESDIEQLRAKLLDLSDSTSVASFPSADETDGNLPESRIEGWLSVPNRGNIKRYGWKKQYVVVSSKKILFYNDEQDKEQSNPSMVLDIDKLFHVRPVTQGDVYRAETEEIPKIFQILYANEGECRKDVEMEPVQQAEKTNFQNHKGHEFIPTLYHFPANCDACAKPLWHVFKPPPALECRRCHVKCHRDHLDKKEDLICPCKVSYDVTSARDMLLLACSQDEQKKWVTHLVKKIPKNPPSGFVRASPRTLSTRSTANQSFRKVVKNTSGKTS

As for `Cc1c[nH]c2nccc(Oc3ccc(CC4CNCN(CCCN(C)C)C4=O)cc3F)c12` (stereo not drawn) [Example 41, 3-(3-(dimethylamino)propyl)-5-(3-fluoro-4-((3-methyl-1H-pyrrolo[2,3-b]pyridin-4-yl)oxy)benzyl)tetrahydropyrimidin-4(1H)-one], the Ki in experiment [1] and in experiment [2] was 3 to 30 nM each time.

Take `COCCCN1CNCC(Cc2ccc(Oc3ccnc4[nH]cc(C)c34)c(F)c2)C1=O` (stereo not drawn) [Example 42, 5-(3-fluoro-4-((3-methyl-1H-pyrrolo[2,3-b]pyridin-4-yl)oxy)benzyl)-3-(3-methoxypropyl)tetrahydropyrimidin-4(1H)-one]: the Ki is over 30 nM in experiment [1] and 3 to 30 nM in experiment [2].

As to `Cc1c[nH]c2nccc(Oc3ccc(CC4CNCN(CCc5ccncc5)C4=O)cc3F)c12` (stereo not drawn) [Example 43, 5-(3-fluoro-4-((3-methyl-1H-pyrrolo[2,3-b]pyridin-4-yl)oxy)benzyl)-3-(2-(pyridin-4-yl)ethyl)tetrahydropyrimidin-4(1H)-one], the inhibitory constant (Ki) in experiment [1] and in experiment [2] was over 30 nM in each case.

Consider `CN(C)CCCNC(=O)C(CN)Cc1ccc(Oc2ccnc3[nH]cc(C#N)c23)cc1` (stereo not drawn) [Example 44, 3-amino-2-(4-((3-cyano-1H-pyrrolo[2,3-b]pyridin-4-yl)oxy)benzyl)-N-(3-(dimethylamino)propyl)propanamide], for which the Ki in experiment [1] and in experiment [2] was under 3 nM each time.

Regarding `CN(C)CCCN1CNCC(Cc2ccc(Oc3ccnc4[nH]cc(C#N)c34)cc2)C1=O` (stereo not drawn) [Example 45, 4-(4-((1-(3-(dimethylamino)propyl)-6-oxohexahydropyrimidin-5-yl)methyl)phenoxy)-1H-pyrrolo[2,3-b]pyridine-3-carbonitrile], the inhibition constant (Ki) in experiment [1] and in experiment [2] was 3 to 30 nM each time.

`CN1CCC(NC(=O)C(CN)Cc2ccc(Oc3ccnc4[nH]cc(C#N)c34)cc2)CC1` (stereo not drawn) [Example 46, 3-amino-2-(4-((3-cyano-1H-pyrrolo[2,3-b]pyridin-4-yl)oxy)benzyl)-N-(1-methylpiperidin-4-yl)propanamide]: the Ki in experiment [1] and in experiment [2] was under 3 nM throughout.

For the molecule `CN1CCC(N2CNCC(Cc3ccc(Oc4ccnc5[nH]cc(C#N)c45)cc3)C2=O)CC1` (stereo not drawn) [Example 47, 4-(4-((1-(1-methylpiperidin-4-yl)-6-oxohexahydropyrimidin-5-yl)methyl)phenoxy)-1H-pyrrolo[2,3-b]pyridine-3-carbonitrile], the Ki in experiment [1] and in experiment [2] was 3 to 30 nM each time.

As for `CN1C[C@@H]2C[C@H]1CN2C(=O)C(CN)Cc1ccc(Oc2ccnc3[nH]cc(C#N)c23)cc1` (stereo partly drawn) [Example 48, 4-(4-(2-(aminomethyl)-3-((1S,4S)-5-methyl-2,5-diazabicyclo[2.2.1]heptan-2-yl)-3-oxopropyl)phenoxy)-1H-pyrrolo[2,3-b]pyridine-3-carbonitrile], the Ki was 3 to 30 nM in experiment [1] and under 3 nM in experiment [2].

For the molecule `N#Cc1c[nH]c2nccc(Oc3ccc(CC(CN)C(=O)N4CCN(Cc5ccccn5)CC4)cc3)c12` (stereo not drawn) [Example 49, 4-(4-(2-(aminomethyl)-3-oxo-3-(4-(pyridin-2-ylmethyl)piperazin-1-yl)propyl)phenoxy)-1H-pyrrolo[2,3-b]pyridine-3-carbonitrile], the Ki in experiment [1] is 3 to 30 nM; in experiment [2], under 3 nM.
